Experimental data taken from patent publication US20250145599A1, “CERTAIN CHEMICAL ENTITIES, COMPOSITIONS, AND METHODS” (Retune Pharma Inc., priority 2022, published 2025).

Columns and labels:
IGF-1R = IGF-1R (Homo sapiens, UniProt P08069); assay: IGF-1R biochemical assay (ADP-Glo); conditions: read-out: IGF1R IC50
Method: The inhibitory activity against IGF-1R was measured using ADP-Glo assay. The percent (%) inhibition at each concentration of compound is calculated based on and relative to the luminescence signal in the Max and Min control wells contained within each assay plate. The Max control wells contain enzyme and substrate as 0% inhibition, and the Min control wells only contain substrate without enzyme as 100% inhibition. The concentrations and % inhibition values for tested compounds are plotted and the concentration of compound required for 50% inhibition (IC50) is determined with a four-parameter logistic dose response equation.
Table 3 provides IC50 data of representative compounds against IGF-1R using ADP-Glo assay. The IC50 data are designated within the following ranges: A: ≤0.10 μM, B: >0.10 μM to ≤1 μM, C: >1 μM to ≤20 μM

Ba/F3-TEL-IGF-1R cells = assay: CellTiter-Glo luminescent cell viability assay; type: cell-based; conditions: cellular IC50, Ba/F3-TEL-IGF-1R cells
Method: The CellTiter-Glo luminescent cell viability assay was used to determine the inhibitory activity of the compounds against IGF-1R in Ba/F3-TEL-IGF-1R cells. […] The IC50 data are designated within the following ranges: A: ≤1 μM, B: >1 μM to ≤10 μM, C: >10 μM to ≤20 μM

Sequence of IGF-1R (P08069 31-1367): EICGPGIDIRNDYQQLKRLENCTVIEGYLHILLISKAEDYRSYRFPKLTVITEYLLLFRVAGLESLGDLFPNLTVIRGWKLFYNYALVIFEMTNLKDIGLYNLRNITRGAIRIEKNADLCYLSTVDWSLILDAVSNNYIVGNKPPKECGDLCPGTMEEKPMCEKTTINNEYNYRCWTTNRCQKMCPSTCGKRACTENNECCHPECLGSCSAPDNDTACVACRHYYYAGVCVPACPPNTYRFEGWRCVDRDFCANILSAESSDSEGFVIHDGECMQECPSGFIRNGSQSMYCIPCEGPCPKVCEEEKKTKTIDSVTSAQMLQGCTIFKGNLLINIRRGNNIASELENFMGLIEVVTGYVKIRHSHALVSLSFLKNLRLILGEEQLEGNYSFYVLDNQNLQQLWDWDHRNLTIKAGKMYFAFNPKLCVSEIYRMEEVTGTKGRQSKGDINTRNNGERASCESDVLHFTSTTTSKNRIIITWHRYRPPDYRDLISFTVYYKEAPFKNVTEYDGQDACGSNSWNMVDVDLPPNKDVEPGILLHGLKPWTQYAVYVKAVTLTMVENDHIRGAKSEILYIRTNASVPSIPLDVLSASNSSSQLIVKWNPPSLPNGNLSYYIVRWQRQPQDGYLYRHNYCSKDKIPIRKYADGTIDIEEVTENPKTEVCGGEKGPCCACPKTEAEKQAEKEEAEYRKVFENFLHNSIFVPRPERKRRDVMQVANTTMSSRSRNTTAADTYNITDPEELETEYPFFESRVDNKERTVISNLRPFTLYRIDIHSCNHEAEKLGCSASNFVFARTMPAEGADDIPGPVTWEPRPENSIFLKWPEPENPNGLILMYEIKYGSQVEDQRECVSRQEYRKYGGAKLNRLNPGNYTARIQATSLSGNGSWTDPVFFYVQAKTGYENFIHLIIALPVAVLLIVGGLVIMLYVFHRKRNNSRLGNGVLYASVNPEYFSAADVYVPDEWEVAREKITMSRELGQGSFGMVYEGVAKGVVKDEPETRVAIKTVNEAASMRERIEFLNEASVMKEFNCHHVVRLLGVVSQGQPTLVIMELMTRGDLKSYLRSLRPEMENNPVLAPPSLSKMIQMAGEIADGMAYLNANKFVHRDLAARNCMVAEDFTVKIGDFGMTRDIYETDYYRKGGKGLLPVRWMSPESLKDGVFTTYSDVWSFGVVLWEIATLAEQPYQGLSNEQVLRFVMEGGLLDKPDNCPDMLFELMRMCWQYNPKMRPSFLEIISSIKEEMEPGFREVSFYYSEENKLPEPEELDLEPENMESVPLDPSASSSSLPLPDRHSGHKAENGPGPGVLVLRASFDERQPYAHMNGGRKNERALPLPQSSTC

Row | IC50 (IGF-1R) [µM] | IC50 (Ba/F3-TEL-IGF-1R cells) [µM] | SMILES
1 | ≤ 0.1 | ≤ 1 | C[C@]1(O)C[C@@H](n2nc(-c3ccc4ccc(-c5ccccc5F)nc4c3F)c(C(N)=O)c2N)C1 [Example C056, 5-amino-3-(8-fluoro-2-(2-fluorophenyl)quinolin-7-yl)-1-((1s,3s)-3-hydroxy-3-methylcyclobutyl)-1H-pyrazole-4-carboxamide]
2 | ≤ 0.1 | ≤ 1 | COc1cc(-c2ccccc2F)nc2c(F)c(-c3nn([C@H]4C[C@@](C)(O)C4)c(N)c3C(N)=O)ccc12 [Example C035, 5-amino-3-(8-fluoro-2-(2-fluorophenyl)-4-methoxyquinolin-7-yl)-1-((1s,3s)-3-hydroxy-3-methylcyclobutyl)-1H-pyrazole-4-carboxamide]
3 | ≤ 0.1 | ≤ 1 | COc1c(F)c(-c2ccccc2F)nc2c(F)c(-c3nn([C@H]4C[C@@](C)(O)C4)c(N)c3C(N)=O)ccc12 [Example C061, 5-amino-3-(3,8-difluoro-2-(2-fluorophenyl)-4-methoxyquinolin-7-yl)-1-((1s,3s)-3-hydroxy-3-methylcyclobutyl)-1H-pyrazole-4-carboxamide]
4 | ≤ 0.1 | ≤ 1 | CCOc1cc(-c2ccccc2)nc2c(F)c(-c3nn([C@H]4C[C@@](C)(O)C4)c(N)c3C(N)=O)ccc12 [Example C033, 5-amino-3-(4-ethoxy-8-fluoro-2-phenylquinolin-7-yl)-1-((1s,3s)-3-hydroxy-3-methylcyclobutyl)-1H-pyrazole-4-carboxamide]
5 | ≤ 0.1 | ≤ 1 | NC(=O)c1c(-c2ccc3ccc(-c4ccccc4)nc3c2)nn([C@H]2C[C@H](CN3CCOCC3)C2)c1N [Example C013, 5-amino-1-((1r,3r)-3-(morpholinomethyl)cyclobutyl)-3-(2-phenylquinolin-7-yl)-1H-pyrazole-4-carboxamide]
6 | 0.1 to 1 |  | CCOC(=O)[C@H]1C[C@@H](n2nc(-c3ccc4ccc(-c5ccccc5)nc4c3)c(C(N)=O)c2N)C1 [Example C011, ethyl (1s,3s)-3-(5-amino-4-carbamoyl-3-(2-phenylquinolin-7-yl)-1H-pyrazol-1-yl)cyclobutane-1-carboxylate]
7 | ≤ 0.1 |  | C[C@]1(O)C[C@@H](n2nc(-c3ccc4ccc(-c5ccccc5Br)nc4c3)c(C(N)=O)c2N)C1 [Example C038, 5-amino-3-(2-(2-bromophenyl)quinolin-7-yl)-1-((ls,3s)-3-hydroxy-3-methylcyclobutyl)-1H-pyrazole-4-carboxamide]
8 | ≤ 0.1 | ≤ 1 | COc1cc(-c2ccccc2)nc2cc(-c3nn([C@H]4C[C@@](C)(O)C4)c(N)c3C(N)=O)ccc12 [Example C032, 5-amino-1-((1s,3s)-3-hydroxy-3-methylcyclobutyl)-3-(4-methoxy-2-phenylquinolin-7-yl)-1H-pyrazole-4-carboxamide]
9 | ≤ 0.1 |  | NC(=O)c1c(-c2ccc3ccc(-c4ccccc4)nc3c2)nn([C@H]2C[C@H](CN3CCC3)C2)c1N [Example C014, 5-amino-1-((1r,3r)-3-(azetidin-1-ylmethyl)cyclobutyl)-3-(2-phenylquinolin-7-yl)-1H-pyrazole-4-carboxamide]
10 | ≤ 0.1 | ≤ 1 | NC(=O)c1c(-c2ccc3ccc(-c4ccccc4)nc3c2)nn([C@H]2C[C@@H](CN3CCOCC3)C2)c1N [Example C012, 5-amino-1-((1s,3s)-3-(morpholinomethyl)cyclobutyl)-3-(2-phenylquinolin-7-yl)-1H-pyrazole-4-carboxamide]
11 | 1 to 20 |  | NC(=O)c1c(-c2ccc3ccc(-c4ccccc4)nc3c2)nn2c1NCC(C(N)=O)C2 (centres unmarked) [Example C031]
12 | ≤ 0.1 | ≤ 1 | COc1cc(-c2ccccc2F)nc2cc(-c3nn([C@H]4C[C@@](C)(O)C4)c(N)c3C(N)=O)ccc12 [Example C046, 5-amino-3-(2-(2-fluorophenyl)-4-methoxyquinolin-7-yl)-1-((1s,3s)-3-hydroxy-3-methylcyclobutyl)-1H-pyrazole-4-carboxamide]
13 | ≤ 0.1 | ≤ 1 | CCOc1cc(-c2ccccc2)nc2cc(-c3nn([C@H]4C[C@@](C)(O)C4)c(N)c3C(N)=O)ccc12 [Example C036, 5-amino-3-(4-ethoxy-2-phenylquinolin-7-yl)-1-((1s,3s)-3-hydroxy-3-methylcyclobutyl)-1H-pyrazole-4-carboxamide]
14 | ≤ 0.1 |  | NC(=O)c1c(-c2ccc3ccc(-c4ccccc4)nc3c2)nn([C@H]2C[C@@H](CN3CCNCC3)C2)c1N [Example C015, 5-amino-3-(2-phenylquinolin-7-yl)-1-((1s,3s)-3-(piperazin-1-ylmethyl)cyclobutyl)-1H-pyrazole-4-carboxamide]
15 | 1 to 20 |  | CC(=O)N1CCC(n2nc(-c3ccc4ccc(-c5ccccc5)nc4c3)c(C(N)=O)c2N)CC1 [Example C010, 1-(1-acetylpiperidin-4-yl)-5-amino-3-(2-phenylquinolin-7-yl)-1H-pyrazole-4-carboxamide]
16 | ≤ 0.1 |  | NC(=O)c1c(-c2ccc3ccc(-c4ccccc4)nc3c2)nn(C2CC(N3CCNCC3)C2)c1N (centres unmarked) [Example C025, 5-amino-3-(2-phenylquinolin-7-yl)-1-(3-(piperazin-1-yl)cyclobutyl)-1H-pyrazole-4-carboxamide]
17 | 1 to 20 |  | NC(=O)c1c(-c2ccc3ccc(-c4ccccc4)nc3c2)nn([C@H]2C[C@@H](C(=O)O)C2)c1N [Example C017, (1s,3s)-3-(5-amino-4-carbamoyl-3-(2-phenylquinolin-7-yl)-1H-pyrazol-1-yl)cyclobutane-1-carboxylic acid]
18 | ≤ 0.1 |  | C[C@]1(O)C[C@@H](n2nc(-c3ccc4ccc(-c5cccc(F)c5)nc4c3)c(C(N)=O)c2N)C1 [Example C041, 5-amino-3-(2-(3-fluorophenyl)quinolin-7-yl)-1-((1s,3s)-3-hydroxy-3-methylcyclobutyl)-1H-pyrazole-4-carboxamide]
19 | ≤ 0.1 |  | C[C@]1(O)C[C@@H](n2nc(-c3ccc4ccc(-c5ccccc5)nc4c3F)c(C(N)=O)c2N)C1 [Example C028, 5-amino-3-(8-fluoro-2-phenylquinolin-7-yl)-1-((1s,3s)-3-hydroxy-3-methylcyclobutyl)-1H-pyrazole-4-carboxamide]
20 | ≤ 0.1 |  | CCOc1cc(-c2ccccc2)nc2cc(-c3nn(C4CC(=O)C4)c(N)c3C(N)=O)ccc12 [Example C043, 5-amino-3-(4-ethoxy-2-phenylquinolin-7-yl)-1-(3-oxocyclobutyl)-1H-pyrazole-4-carboxamide]
21 | ≤ 0.1 |  | C[C@]1(O)C[C@H](n2nc(-c3ccc4ccc(-c5ccccc5F)nc4c3)c(C(N)=O)c2N)C1 [Example C040, 5-amino-3-(2-(2-fluorophenyl)quinolin-7-yl)-1-((1r,3r)-3-hydroxy-3-methylcyclobutyl)-1H-pyrazole-4-carboxamide]
22 | ≤ 0.1 |  | COc1cc(-c2ccccc2)nc2cc(-c3nn([C@H]4C[C@](C)(O)C4)c(N)c3C(N)=O)c(F)cc12 [Example C052, 5-amino-3-(6-fluoro-4-methoxy-2-phenylquinolin-7-yl)-1-((lr,3r)-3-hydroxy-3-methylcyclobutyl)-1H-pyrazole-4-carboxamide]
23 | ≤ 0.1 |  | C[C@]1(O)C[C@@H](n2nc(-c3ccc4c(OC(F)F)cc(-c5ccccc5)nc4c3)c(C(N)=O)c2N)C1 [Example C053, 5-amino-3-(4-(difluoromethoxy)-2-phenylquinolin-7-yl)-1-((1s,3s)-3-hydroxy-3-methylcyclobutyl)-1H-pyrazole-4-carboxamide]
24 | 0.1 to 1 |  | C[C@]1(O)C[C@@H](n2nc(-c3ccc4ccc(-c5ccccn5)nc4c3F)c(C(N)=O)c2N)C1 [Example C057, 5-amino-3-(8-fluoro-2-(pyridin-2-yl)quinolin-7-yl)-1-((1s,3s)-3-hydroxy-3-methylcyclobutyl)-1H-pyrazole-4-carboxamide]
25 | 0.1 to 1 |  | CCOC(=O)[C@]1(C)C[C@@H](n2nc(-c3ccc4ccc(-c5ccccc5)nc4c3)c(C(N)=O)c2N)C1 [Example C020, ethyl (1r,3r)-3-(5-amino-4-carbamoyl-3-(2-phenylquinolin-7-yl)-1H-pyrazol-1-yl)-1-methylcyclobutane-1-carboxylate]
26 | ≤ 0.1 |  | CN1CCN(C[C@H]2C[C@H](n3nc(-c4ccc5ccc(-c6ccccc6)nc5c4)c(C(N)=O)c3N)C2)CC1 [Example C021, 5-amino-1-((1r,3r)-3-((4-methylpiperazin-1-yl)methyl)cyclobutyl)-3-(2-phenylquinolin-7-yl)-1H-pyrazole-4-carboxamide]
27 | 1 to 20 |  | CN1CCC(n2nc(-c3ccc4ccc(-c5ccccc5)nc4c3)c(C(N)=O)c2N)CC1 [Example C007, 5-amino-1-(1-methylpiperidin-4-yl)-3-(2-phenylquinolin-7-yl)-1H-pyrazole-4-carboxamide]
28 | ≤ 0.1 |  | NC(=O)c1c(-c2ccc3ccc(-c4ccccc4)nc3c2)nn(C2CC(N3CCOCC3)C2)c1N (centres unmarked) [Example C023, 5-amino-1-(3-morpholinocyclobutyl)-3-(2-phenylquinolin-7-yl)-1H-pyrazole-4-carboxamide]
29 | 1 to 20 |  | NC(=O)c1c(-c2ccc3ccc(-c4ccccc4)nc3c2)nn(C2COC2)c1N [Example C029, 5-amino-1-(oxetan-3-yl)-3-(2-phenylquinolin-7-yl)-1H-pyrazole-4-carboxamide]
